# Article PMC7613515, “Reading and erasing of the phosphonium analogue of trimethyllysine by epigenetic proteins” (Communications Chemistry, 2022)
# Key:
# SGF29TTD (R115–K293) = molecular target: T1, SGF29TTD (R115–K293) (Homo sapiens, UniProt Q96ES7); assay: ITC, association of histone H3 peptides with SGF29TTD; format: binding
# T1 construct: SGF29TTD (R115–K293); made in house; host or cells: E. coli
# T1 sequence (Q96ES7 115-293): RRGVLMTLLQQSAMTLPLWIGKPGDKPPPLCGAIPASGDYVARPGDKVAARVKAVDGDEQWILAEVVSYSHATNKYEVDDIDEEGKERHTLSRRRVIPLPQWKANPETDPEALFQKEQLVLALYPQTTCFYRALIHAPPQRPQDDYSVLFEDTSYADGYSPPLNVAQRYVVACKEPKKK
# Source text: (§1) We investigated the thermodynamics of association of the H3KP4me3 peptide with five representative human reader domains containing either a PHD zinc finger or TTD, i.e. KDM5APHD3 (JARID1A-PHD3, residues M1489–V1641)[10], TAF3PHD (R857–K924)[22], BPTFPHD (L2583–N2751)[23], SGF29TTD (R115–K293)[24] and KDM4ATTD (JMJD2A, Q897-P1011)[25], selected on the basis of their preference for binding Ν^ε-trimethyllysine over other (non)methylation marks (Kme0 < Kme1 < Kme2 < Kme3), and their domain and aromatic cage diversity. The recombinant readers were produced in E. coli following reported procedures. Isothermal titration calorimetric (ITC) analyses were used to determine the dissociation constant (Kd), the Gibbs free energy of binding (ΔG°), the enthalpy of binding (ΔH°), and the entropy of binding (ΔS°). […] (Table 1, Fig. 2, Supplementary Fig. 1).
# (§2) The following purified reader domains: TAF3PHD (R857-K924), KDM5APHD3 (JARID1A, M1489-V1641), BPTFPHD (L2583-N2751), KDM4ATTD (JMJD2A, Q897-P1011) and SGF29TTD (R115-K293) were prepared as reported[10],[22]–[26]. The histone lysine demethylase were produced and purified to high purity via reported procedures KDM3A (JMJD1A, T515-S1317)[41], KDM4AJmjC[39] (JMJD2A, M1-L359), KDM4EJmjC (JMJD2E, M1–Q337)[34] and KDM7B[40] (PHF8, M37-N483 [NP_001171]). KDM5DJmjC was produced using an N-terminal hexa-His tagged KDM4D (KDM4DM1-L358) DNA construct, transformed into BL21(DE3) competent cells for recombinant protein production. Colonies were used to inoculate of LB media (50 mL) containing kanamycin (50 µg·mL^−1) and chloramphenicol (34 µg·mL^−1), which was placed in a 37 °C shaker overnight. The starter culture (10 mL) was used to inoculate TB media (6 × 1 L) containing kanamycin (50 µg·mL^−1) in 2 L baffled shaker flasks. After reaching an of OD600 of ~0.8, the temperature was reduced to 18 °C; at OD600 ~0.9 the cells were induced by the IPTG (0.5 mM) addition. After shaking overnight, the culture was centrifuged (5000 rpm, 10 mins), the media was decanted, and the cell pellet was suspended in Lysis Buffer [HEPES (50 mM), NaCl (500 mM), imidazole (20 mM), glycerol (5%) and TCEP (0.5 mM) in water (pH 7.4)]. The suspension was lysed by passaging through a high-pressure cell breaker (Avestin – EmulsiFlex-C5) for three rounds. The lysate was cleared by centrifugation (60 minutes, 36,000 × g, 4 °C), then loaded onto a Ni NTA gravity column. After extensive rinsing of the Ni-NTA gravity column with lysis buffer, the His-tagged protein was eluted in lysis buffer containing 300 mM imidazole. The eluted protein was concentrated and subjected to gel filtration chromatography using an AKTA Xpress system, an S200 16/600 gel filtration column, and GF buffer [HEPES (50 mM), NaCl (150 mM), glycerol (5%) and TCEP (0.5 mM) in water (pH 7.4)]. The protein identity was verified by LC-MS (ESI-TOF) observing a mass of 43759.7 Da, in accord with the predicted mass of 43751.6 Da.
# (§3) ITC studies followed a reported procedure. The buffer used corresponded to that used in the final protein purification step. […] Histone peptide titrations were performed with the same reader batches. Solutions of the reader in buffer (25–40 µM) and of the histone H3 peptide (350–600 µM) in buffer were prepared. […] Heats of dilution for histone peptides determined in control experiments were subtracted from the titration binding data. […]
# BPTFPHD (L2583–N2751) = molecular target: T2, BPTFPHD (L2583–N2751) (Homo sapiens, UniProt Q12830); assay: ITC, association of histone H3 peptides with BPTFPHD; format: binding
# T2 construct: BPTFPHD (L2583–N2751); made in house; host or cells: E. coli
# Experimental: ITC studies followed a reported procedure[26]. The buffer used corresponded to that used in the final protein purification step. Briefly, TAF3PHD and KDM4ATTD: [Tris (50 mM) in water (pH 7.5)]; KDM5APHD3 and BTPFPHD: [Tris (50 mM), NaCl (20 mM) in water (pH 7.5)]; [Tris (25 mM), NaCl (50 mM), 1,4-dithiothreitol (1.0 mM) in water (pH 7.5)]. Experiments were conducted using ITC200 automated (GE Healthcare Life Sciences, USA) instrument at 25 °C. Histone peptide titrations were performed with the same reader batches. Solutions of the reader in buffer (25–40 µM) and of the histone H3 peptide (350–600 µM) in buffer were prepared. The prepared solutions were plated into a 96-well plate and inserted into the instrument for analysis. Experiments were performed according to manufacturer’s default settings: Plate pre-rinse syringe clean. A total of 19 injections were performed; each experiment was repeated 3–5 times. Heats of dilution for histone peptides determined in control experiments were subtracted from the titration binding data.
# TAF3PHD (R857–K924) = molecular target: T3, TAF3PHD (R857–K924) (Mus musculus, UniProt Q5HZG4); assay: ITC, association of histone H3 peptides with TAF3PHD; format: binding, human; conditions: 25 °C, H3 1-10 peptide, Tris (50 mM), pH 7.5, from 3 to 5 experiments, ± SD
# T3 construct: TAF3PHD (R857–K924); made in house; host or cells: E. coli
# T3 sequence (Q5HZG4 857-924 limits assumed): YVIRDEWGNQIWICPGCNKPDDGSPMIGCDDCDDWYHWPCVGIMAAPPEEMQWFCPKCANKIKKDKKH
# Source text: as §1
# as §2, with “After extensive rinsing of the Ni-NTA gravity column with lysis buffer, the His-tagged protein was eluted in lysis buffer containing 300 mM imidazole. The eluted protein was concentrated and subjected to gel filtration chromatography using an AKTA Xpress system, an S200 16/600 gel filtration column, and GF buffer [HEPES (50 mM), NaCl (150 mM), glycerol (5%) and TCEP (0.5 mM) in water (pH 7.4)]. The protein identity was verified by LC-MS (ESI-TOF) observing a mass of 43759.7 Da, in accord with the predicted mass of 43751.6 Da.” left out
# as §3, with “procedure.” for “procedure. The buffer used corresponded to that used in the final protein purification step.”
# [1] = 25 °C, H3 1-10 peptide, pH 7.5, from 3 to 5 experiments, ± SD
# [2] = 25 °C, H3 1-10 peptide, Tris (50 mM), NaCl (20 mM), pH 7.5, from 3 to 5 experiments, ± SD
compound,measurement,setting,value
C[C@H](N)C(=O)N[C@@H](CCCNC(=N)N)C(=O)N[C@H](C(=O)N[C@@H](CCCC[P+](C)(C)C)C(=O)N[C@@H](CCC(N)=O)C(=O)N[C@H](C(=O)N[C@@H](C)C(=O)N[C@@H](CCCNC(=N)N)C(=O)N[C@@H](CCCCN)C(=O)N[C@@H](CO)C(N)=O)[C@@H](C)O)[C@@H](C)O [H3KP4me3],-TΔS°,SGF29TTD (R115–K293); [1],1.0 ± 0.1 kcal/mol
same,ΔG°,SGF29TTD (R115–K293); [1],-7.6 ± 0.1 kcal/mol
same,ΔH°,SGF29TTD (R115–K293); [1],-8.6 ± 0.1 kcal/mol
same,binding affinity relative to H3K4me3,SGF29TTD (R115–K293); SGF29TTD,comparable binding affinity for H3K4me3 and H3KP4me3
same,-TΔS°,BPTFPHD (L2583–N2751); [2],4.7 ± 0.1 kcal/mol
same,ΔG°,BPTFPHD (L2583–N2751); [2],-9.1 ± 0.1 kcal/mol
same,ΔH°,BPTFPHD (L2583–N2751); [2],-13.8 ± 0.1 kcal/mol
same,"fold stronger binding (ΔKd), H3KP4me3 versus H3K4me3",BPTFPHD (L2583–N2751); BPTFPHD,~ 7 fold
same,-TΔS°,TAF3PHD (R857–K924),1.1 ± 0.1 kcal/mol
same,ΔG°,TAF3PHD (R857–K924),-10.0 ± 0.1 kcal/mol
same,ΔH°,TAF3PHD (R857–K924),-11.1 ± 0.1 kcal/mol
